Results: ChEMBL document CHEMBL1132921, “Analogues of the potent nonpolyglutamatable antifolate N(alpha)-(4-amino-4-deoxypteroyl)-N(delta)-hemiphthaloyl-L-ornithine (PT523) with modifications in the side chain, p-aminobenzoyl moiety, or 9,10-bridge: synthesis and in vitro antitumor activity” (J Med Chem, 2000)

Test system: CCRF-CEM
Assay: Growth inhibition of CCRF-CEM human leukemic lymphoblasts
Format: functional, cell-based

Row | IC50 [nM] | SMILES
1 | 0.53 | Nc1nc(N)c2nc(CCc3ccc(C(=O)NC(CCCNC(=O)c4ccccc4C(=O)O)C(=O)O)cc3)cnc2n1 (centres undefined)
2 | 4.4 | Nc1nc(N)c2nc(CNc3ccc(C(=O)NC(CSCNC(=O)c4ccccc4C(=O)O)C(=O)O)cc3)cnc2n1 (centres undefined)
3 | 0.63 | CC(Cc1cnc2nc(N)nc(N)c2n1)c1ccc(C(=O)NC(CCCNC(=O)c2ccccc2C(=O)O)C(=O)O)cc1 (centres undefined)
4 | 1.2 | Nc1nc(N)c2nc(CNc3ccc(C(=O)NC(CCCNC(=O)c4ccccc4C(=O)O)C(=O)O)c4ccccc34)cnc2n1 (centres undefined)
5 | 5.1 | Nc1nc(N)c2nc(CNc3ccc(C(=O)NC(CNC(=O)c4ccccc4C(=O)O)C(=O)O)cc3)cnc2n1 (centres undefined)
6 | 5 | Nc1nc(N)c2nc(CNc3ccc(C(=O)NC(CCSCNC(=O)c4ccccc4C(=O)O)C(=O)O)cc3)cnc2n1 (centres undefined)
7 | 3.3 | CCC(Cc1cnc2nc(N)nc(N)c2n1)c1ccc(C(=O)N[C@@H](CCC(=O)O)C(=O)O)cc1 (some centres undefined) [EDATREXATE]
8 | 55 | Nc1nc(N)c2nc(CNc3ccc(C(=O)NC(CCCNC(=O)c4ccc(C(=O)O)cc4)C(=O)O)cc3)cnc2n1 (centres undefined)
9 | 2.9 | Nc1nc(N)c2nc(CNc3ccc(C(=O)NC(CCCCNC(=O)c4ccccc4C(=O)O)C(=O)O)cc3)cnc2n1 (centres undefined)
10 | 1.2 | CCC(Cc1cnc2nc(N)nc(N)c2n1)c1ccc(C(=O)NC(CCCNC(=O)c2ccccc2C(=O)O)C(=O)O)cc1 (centres undefined)
11 | 54 | CCC(Cc1cnc2nc(N)nc(N)c2n1)(C(=O)OC)c1ccc(C(=O)NC(CCCNC(=O)c2ccccc2C(=O)O)C(=O)O)cc1 (centres undefined)
12 | 5.5 | Nc1nc(N)c2nc(CNc3ccc(C(=O)NC(CCNC(=O)c4ccccc4C(=O)O)C(=O)O)cc3)cnc2n1 (centres undefined)
13 | 7.5 | Nc1nc(N)c2nc(CNc3ccc(C(=O)NC(CCCNC(=O)c4cccc(C(=O)O)c4)C(=O)O)cc3)cnc2n1 (centres undefined)

Row | SMILES | IC50 [nM]
14 | Nc1nc(N)c2nc(CNc3ccc(C(=O)N[C@@H](CCC(=O)O)C(=O)O)cc3)cnc2n1 [AMINOPTERIN] | 4.4
